In US20070232698A1, “Slimming Skin External Preparation and Cosmetic Containing the Same” (priority 2004, published 2007):
Where a name gives a salt, the structure may show the parent alone.

System: Mouse 3T3-F442A cells
Assay: Triglyceride accumulation in adipocytes with base acylcarnitine plus test substance (oil red staining)
Type: cell-based
Settings: 4 days, control = base alone; for accumulated triglyceride amount relative to the control (100%), Base Hexadecanoyl-L-carnitine hydrochloride: base hexadecanoyl-L-carnitine hydrochloride plus 50 μM test substance (ginkgo biloba extract 30 μg/ml; garcinia extract as hydroxycitric acid); for accumulated triglyceride amount relative to the control (100%), Base Octadecanoyl-L-carnitine hydrochloride: base octadecanoyl-L-carnitine hydrochloride plus 50 μM test substance (ginkgo biloba extract 30 μg/ml; garcinia extract as hydroxycitric acid)
Description: The incubation was continued for another 4 days. The control was incubated using a culture medium that contained the base alone (no test substances). After the 4-days incubation, the cells were washed three times with Dulbecco's PBS (−). The triglyceride amount accumulated in the cells was quantitatively determined by oil red staining. […] Mouse 3T3-F442A cells were incubated as described in Example 10, and differentiation into adipocytes was observed. […] The incubation was continued for another 4 days. The control was incubated using a culture medium that contained the base alone (no test substances). After the 4-days incubation, the cells were washed three times with Dulbecco's PBS (−). The triglyceride amount accumulated in the cells was quantitatively determined by oil red staining.

Row | Molecule | accumulated triglyceride amount relative to the control (100%), Base Hexadecanoyl-L-carnitine hydrochloride [%] | accumulated triglyceride amount relative to the control (100%), Base Octadecanoyl-L-carnitine hydrochloride [%]
1 | Cc1c(C)c2c(c(C)c1OP(=O)([O-])[O-])CCC(C)(CCCC(C)CCCC(C)CCCC(C)C)O2.[Na+].[Na+] (racemic) [dl-α-Tocopherol phosphate sodium salt] | 100 | 102
2 | Cc1c(C)c2c(c(C)c1OC(=O)CN(C)C)CCC(C)(CCCC(C)CCCC(C)CCCC(C)C)O2.Cl (racemic) [dl-α-Tocopherol-N,N-dimethylglycine ester hydrochloride] | 98 | 99
3 | CC(C)Cn1c(=O)n(C)c(=O)c2[nH]cnc21 [3-Isobutyl-1-methylxanthine] | 50 | 57
4 | O=C1O[C@H]([C@@H](O)CO)C(O)=C1O[C@H]1O[C@H](CO)[C@@H](O)[C@H](O)[C@H]1O [Ascorbic acid-2-glucoside] | 99 | 102
5 | O=C1O[C@H]([C@@H](O)CO)C(O)=C1OP(=O)([O-])[O-].[Mg+2] [Ascorbic acid-2-phosphate magnesium salt] | 98 | 97
6 | CCCCCCCCCCCCCCCC(=O)OC[C@H](O)[C@H]1OC(=O)C(OP(=O)([O-])[O-])=C1[O-].[Na+].[Na+].[Na+] [Ascorbic acid-2-phosphoric acid-6-palmitate sodium salt] | 96 | 96
7 | OCC(O)CO [Glycerol] | 118 | 113
8 | CCCCCCCCCCCCCCCC(=O)OC(CC(=O)O)(C(=O)O)C(O)C(=O)O (centres unmarked) [Hydroxycitric acid-2-palmitate] | 70 | 72
9 | CC(C)NCC(O)c1ccc(O)c(O)c1 (centres unmarked) [Isoproterenol hydrochloride] | 60 | 64
10 | C[N+](C)(C)C[C@H](O)CC(=O)[O-].Cl [L-carnitine hydrochloride] | 99 | 102
11 | CCCCCCCCCCCCCC(=O)O [Myristic acid] | 99 | 98
12 | CCCCCCCCCCCCCCCC(=O)O [Palmitic acid] | 102 | 100
13 | Cc1ccc(N(CC2=NCCN2)c2cccc(O)c2)cc1 [Phentolamine hydrochloride] | 68 | 65
14 | CCCCCCCCCCCCCCCCCC(=O)O [Stearic acid] | 101 | 99
15 | Cn1c(=O)c2[nH]cnc2n(C)c1=O [Theophylline] | 62 | 58
16 | Calcium hydroxycitrate | 89 | 88
